Tested on: bombesin-stimulated amylase secretion
Assay: Bombesin-stimulated pancreatic amylase secretion in the rat
Type: in vivo

With D-Phe^6BN(6-13)methylester [I00008] as the substance, how does the “duration of inhibition of the secretion of amylase” value (5 nM of the analog, stimulated by 0.5 nM of bombesin, after bolus injection) read?
Its value is 150 min.

What about the “effect on bombesin-stimulated amylase secretion” value (result in words (Fig. 3)) of the same substance?
Its value is “potent antagonist”.
